These results are taken from publication PMC6713262 (Cell, 2019).

Common to all, as to type: cell-based
One experiment has as its target CB2 G78L (Homo sapiens, UniProt P34972, G78L). As to the kind of experiment: Receptor activity at CB2 stabilizing point mutant G78L.
For another experiment, the target named is CB2 R242E (Homo sapiens, UniProt P34972, R242E). The experiment is described as follows: Receptor activity at CB2 stabilizing point mutant R242E.
Another experiment deals with CB2 G304E (Homo sapiens, UniProt P34972, G304E). The experiment is described as follows: Receptor activity at CB2 stabilizing point mutant G304E.
Sequence of CB2 G304E (P34972 whole entry G304E): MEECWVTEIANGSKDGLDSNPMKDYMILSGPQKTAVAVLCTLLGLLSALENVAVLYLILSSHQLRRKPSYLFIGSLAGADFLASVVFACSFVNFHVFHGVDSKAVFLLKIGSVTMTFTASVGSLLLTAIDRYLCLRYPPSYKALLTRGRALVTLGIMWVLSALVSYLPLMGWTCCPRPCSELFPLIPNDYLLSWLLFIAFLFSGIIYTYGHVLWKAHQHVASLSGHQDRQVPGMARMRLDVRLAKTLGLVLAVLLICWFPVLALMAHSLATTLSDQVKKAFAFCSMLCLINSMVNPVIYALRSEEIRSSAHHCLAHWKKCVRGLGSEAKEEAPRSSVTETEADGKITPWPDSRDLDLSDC
Another experiment addresses CB2 (Homo sapiens, UniProt P34972). The experiment is described as follows: β-arrestin2 recruitment assay. The note with it: for Emax (fold): CB2 β-arrestin2; for EC50: EC50, CB2 β-arrestin2.
Another experiment concerns the target CB2 T127A (Homo sapiens, UniProt P34972, T127A). The experiment is described as follows: Receptor activity at CB2 stabilizing point mutant T127A.
A further experiment deals with CB2 T153L (Homo sapiens, UniProt P34972, T153L). The experiment is described as follows: Receptor activity at CB2 stabilizing point mutant T153L.
Sequence of CB2 T153L (P34972 whole entry T153L): as the sequence (P34972 whole entry G304E) above, with T153L, E304G counted along it
In a further experiment the target is CB1 (Homo sapiens, UniProt P21554). As to the kind of experiment: β-arrestin2 recruitment assay at CB1. The conditions noted are these: for Emax (fold): CB1 β-arrestin2. On the technique in general: Recruitment of arrestin is a read-out of receptor activation apart from second messengers.
Sequence of CB1 (P21554 whole entry): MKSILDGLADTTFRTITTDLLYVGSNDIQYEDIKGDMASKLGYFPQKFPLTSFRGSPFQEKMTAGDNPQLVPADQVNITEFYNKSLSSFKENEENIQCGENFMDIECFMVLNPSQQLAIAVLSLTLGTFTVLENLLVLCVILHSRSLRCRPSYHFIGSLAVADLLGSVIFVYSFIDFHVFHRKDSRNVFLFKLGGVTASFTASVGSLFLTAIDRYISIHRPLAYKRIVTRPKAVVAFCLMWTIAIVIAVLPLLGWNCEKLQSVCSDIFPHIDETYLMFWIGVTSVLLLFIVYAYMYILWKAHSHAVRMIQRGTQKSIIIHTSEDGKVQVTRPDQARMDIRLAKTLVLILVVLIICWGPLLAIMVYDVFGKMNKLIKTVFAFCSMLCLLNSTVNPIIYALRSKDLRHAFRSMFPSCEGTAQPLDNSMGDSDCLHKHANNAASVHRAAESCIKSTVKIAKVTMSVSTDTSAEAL
A further experiment addresses wild-type CB2 (Homo sapiens, UniProt P34972). The experiment is described as follows: Forskolin-stimulated cAMP accumulation. In general terms: Cyclic AMP is a second messenger, typically raised through Gs and lowered through Gi signalling.

Sequence of wild-type CB2 (P34972 whole entry): as the sequence (P34972 whole entry G304E) above, with E304G counted along it
Sequence of CB2 (P34972 whole entry): as the sequence (P34972 whole entry G304E) above, with E304G counted along it
Sequence of CB2 G78L (P34972 whole entry G78L): as the sequence (P34972 whole entry G304E) above, with G78L, E304G counted along it
Sequence of CB2 T127A (P34972 whole entry T127A): as the sequence (P34972 whole entry G304E) above, with T127A, E304G counted along it
Sequence of CB2 R242E (P34972 whole entry R242E): as the sequence (P34972 whole entry G304E) above, with R242E, E304G counted along it

Consider `Cc1c(C(=O)NC23CC4CC(CC(C4)C2)C3)nn(CCCCCO)c1-c1ccccc1` [AM10257, 1-(5-Hydroxypentyl)-4-methyl-5-phenyl-N-tricyclo[3.3.1.1^3,7]dec-1-yl-1H-pyrazole-3-carboxamide], for which the IC50 at CB2 G78L amounted to 59.7 ± 8.1 nM; against CB2 R242E it was 46.7 ± 11.3 nM; against CB2 G304E, 32.1 ± 6.2 nM; at CB2 T127A it was 40.1 ± 4.5 nM; on CB2 T153L, 46.2 ± 4.6 nM; against wild-type CB2, 35.9 ± 3.2 nM. Also, the “Functional profile at CB2 (β-arrestin2 recruitment)” value at CB2 was “competitive antagonist/inverse agonist”. For the same compound, the entries for the “Emax (fold)” value on CB2 (Figure 1C) and on CB1 (Figure 5C) were 0.70 ± 0.05 fold and 2.4 ± 0.1 fold, respectively. Further, the figures for the concentration for a half-maximal effect (EC50) on CB2 (Figure 1C), on CB2 (Figure 6C) and on CB1 were 0.53 ± 0.29 nM, 0.2 ± 0.04 nM and 51.5 ± 7.4 nM, respectively. Besides, on CB1, the “Functional profile at CB1 (β-arrestin2 recruitment)” value (shortened to “Functional profile at CB1”) is “partial agonist”. Besides, the Kb at wild-type CB2 was 5.01 nM. Also, the “Functional profile at CB2 (adenylyl cyclase assay)” value at wild-type CB2 (against CP55,940, Figure 1B) is “competitive antagonist/inverse agonist”.
On to `CC(=O)OCCn1c(C)c(C)sc1=NC(=O)C1C(C)(C)C1(C)C` [MRI2594, 2-(4,5-dimethyl-2-((2,2,3,3-tetramethylcyclopropane-1-carbonyl)imino)thiazol-3(2H)-yl)ethyl acetate], for which the “Functional profile at CB2 (β-arrestin2 recruitment)” value at CB2 is given as “agonist”. In addition, the figures for the “Emax (fold)” value on CB2 (Figure 6C) and on CB1 (Figure 6D) were 2.0 ± 0.2 fold and 28.0 ± 2.0 fold, respectively. Besides, the EC50 at CB2 (Figure 6C) came out at 0.17 ± 0.03 nM; at CB1, 310 ± 54 nM. At CB1, the “Functional profile at CB1” value was “agonist”.
`CC(=O)OCCn1c(=NC(=O)C2C(C)(C)C2(C)C)sc2cc(C)ccc21` [MRI2687, 2-(6-methyl-2-((2,2,3,3-tetramethylcyclopropane-1-carbonyl)imino)benzo[d]thiazol-3(2H)-yl)ethyl acetate]: the “Functional profile at CB2 (β-arrestin2 recruitment)” value at CB2 is “inverse agonist”. Moreover, on CB2 (Figure 6C), the “Emax (fold)” value is 0.75 ± 0.04 fold and the EC50 was determined as 0.24 ± 0.06 nM. Also, at CB1, the EC50 came to 114 ± 15 nM and the “Functional profile at CB1” value was “partial agonist”. On CB1 (Figure 6D), the “Emax (fold)” value stood at 6.0 ± 0.3 fold.

In general, IC50 refers to the concentration at which inhibition is half-maximal. A high value points to weaker potency in that assay. The EC50 is the concentration giving half of the maximal effect. A low value points to higher potency in that assay.
